Target: Thymidylate synthase (Streptococcus faecium)
Test: Inhibitory activity against thymidylate synthase of Streptococcus faecium

In the case of `C#CN(Cc1ccc2nc(N)[nH]c(=O)c2c1)c1ccc(C(=O)NC(CCC(=O)NC(CCC(=O)NC(CCC(=O)O)C(=O)O)C(=O)O)C(=O)O)cc1` (stereo unspecified) [4-[4-(4-{4-[(2-Amino-4-hydroxy-quinazolin-6-ylmethyl)-ethynyl-amino]-benzoylamino}-4-carboxy-butyrylamino)-4-carboxy-butyrylamino]-4-carboxy-butyric acid anion], the IC50 is reported as 5.5 nM.

Reference: BindingDB's records for doi:10.1021/jm00159a032 (1986)
